Assays:
Conditions in all cases: in vivo
[1] = Half life of compound in Sprague-Dawley rat at 1 mg/kg, iv and 2 mg/kg, po; format: ADME, organism-based
[2] = system: Rattus norvegicus; test: Dose normalized AUC in Sprague-Dawley rat at 2 mg/kg, po; format: ADME, organism-based
[3] = system: Rhesus monkey; test: Dose normalized AUC in rhesus monkey at 0.5 mg/kg, po; format: ADME, organism-based, Macaca mulatta
[4] = Oral bioavailability in rhesus monkey at […]; format: ADME, organism-based, Macaca mulatta
[5] = Oral bioavailability in Sprague-Dawley rat at 2 mg/kg; format: ADME, organism-based
[6] = Half life of compound in beagle dog at 0.5 mg/kg, iv; format: ADME, organism-based, Canis lupus familiaris
[7] = Half life of compound in rhesus monkey at 0.25 mg/kg, iv and 0.5 mg/kg, po; format: ADME, organism-based, Macaca mulatta
[8] = system: Canis familiaris; test: fCmax in vagotomized beagle dog at 10 mg/kg, iv administered as cumulative dose; format: ADME, organism-based, Canis lupus familiaris

Row | SMILES | half-life [1] [min] | AUC/dose [2] [µM·kg·h/mg] | AUC/dose [3] [µM·kg·h/mg] | bioavailability [4] [%] | bioavailability [5] [%] | half-life [6] [min] | half-life [7] [min] | fCmax [8] [µM]
1 | O=C1OCc2cc(CCN3CCN(C(=O)Cc4ccc(-n5cnnn5)cc4)CC3)ccc21 | 9.6 | 0.067 | – | – | – | – | – | –
2 | Cc1c(CCN2CCN(C(=O)Cc3ccc(-n4cnnn4)nc3)CC2)ccc2c1COC2=O | 26.4 | 0.84 | 0.001 | < 1 | 38 | 78 | 66 | 21
3 | Cc1cc(-n2cnnn2)cnc1CC(=O)N1CCN(CCc2ccc3c(c2C)COC3=O)CC1 | 19.8 | 0.35 | – | – | 18 | – | – | –
4 | Cc1c(C(F)CN2CCN(C(=O)Cc3ccc(-n4cnnn4)nc3)CC2)ccc2c1COC2=O (racemic) | 21 | 0.31 | – | – | 46 | – | – | –
5 | Cc1c(C(C)CN2CCN(C(=O)Cc3ccc(-n4cnnn4)nc3)CC2)ccc2c1COC2=O (racemic) | 57.6 | 0.45 | – | – | 25 | – | – | –

— ChEMBL document CHEMBL3792353, “Differentiation of ROMK potency from hERG potency in the phenacetyl piperazine series through heterocycle incorporation” (Bioorg Med Chem Lett, 2016)
